Kd data for one molecule are collected here from PMC10046562, “Computational Analysis and Experimental Testing of the Molecular Mode of Action of Gatastatin and Its Derivatives” (Cancers, 2023).

The structures appear in SMILES notation.

For the test, the target named is T1, α-β tubulin (β tubulin, porcine brain) (Sus scrofa, UniProt P02550+P02554).
T1 construct: α-β tubulin purified from porcine brains, labeled with RED-NHS; with α tubulin
Nature of the test: microscale thermophoresis, labeled tubulin. It counts as binding.

T1 sequence (P02554 whole entry): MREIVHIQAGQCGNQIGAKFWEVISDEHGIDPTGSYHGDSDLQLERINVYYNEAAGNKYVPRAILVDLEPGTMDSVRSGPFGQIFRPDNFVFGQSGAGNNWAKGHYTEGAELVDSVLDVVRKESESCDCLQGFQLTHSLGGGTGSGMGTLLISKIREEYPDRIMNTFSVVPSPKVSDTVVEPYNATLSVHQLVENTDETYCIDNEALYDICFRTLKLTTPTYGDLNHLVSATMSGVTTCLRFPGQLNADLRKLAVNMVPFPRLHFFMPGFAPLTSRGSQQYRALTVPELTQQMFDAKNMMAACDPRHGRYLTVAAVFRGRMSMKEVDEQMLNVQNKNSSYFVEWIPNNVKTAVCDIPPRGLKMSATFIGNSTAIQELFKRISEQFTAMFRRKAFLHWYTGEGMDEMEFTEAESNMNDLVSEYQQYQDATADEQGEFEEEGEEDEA
T1 sequence (P02550 whole entry): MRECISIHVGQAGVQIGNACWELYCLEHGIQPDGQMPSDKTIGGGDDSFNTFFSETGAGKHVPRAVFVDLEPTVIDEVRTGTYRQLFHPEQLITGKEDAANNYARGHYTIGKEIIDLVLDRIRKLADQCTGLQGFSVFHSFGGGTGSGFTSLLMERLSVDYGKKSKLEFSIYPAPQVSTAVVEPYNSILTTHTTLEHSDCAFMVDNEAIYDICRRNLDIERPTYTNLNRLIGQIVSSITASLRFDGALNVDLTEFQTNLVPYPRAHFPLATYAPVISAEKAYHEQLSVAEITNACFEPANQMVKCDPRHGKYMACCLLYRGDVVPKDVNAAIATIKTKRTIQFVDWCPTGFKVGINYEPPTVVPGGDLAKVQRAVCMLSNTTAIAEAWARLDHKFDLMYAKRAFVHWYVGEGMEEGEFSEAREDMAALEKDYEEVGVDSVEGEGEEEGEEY

What is called Kd is the free concentration of one partner at which half of the binding sites on the other are occupied at equilibrium, for simple one-to-one binding. `COc1cc2c(=O)c(-c3cc(OC)c4c(c3OC)OCO4)coc2cc1OCc1ccccc1` [gatastatin] returned a Kd of 2160 ± 470 nM.
